According to patent publication US12459951B2, “Compounds that interact with RAS superfamily proteins for treatment of cancers, inflammatory diseases, rasopathies, and fibrotic disease” (SHY Therapeutics, LLC, priority 2022, dated 2025):

Assays:
[1] = test system: Smad2/Smad3 phosphorylation; assay: Phospho-Smad2/3 Inhibition Assay (western blot), Panc-1; assay type: cell-based, human; conditions: at 10 μM, Panc-1 pancreatic cancer cell line; starred symbols = activation
Outline: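 Western blotting of lysates (15-50 μg protein) read phosphorylation of Smad2 Ser465/467 and Smad3 Ser423/425. Before lysis, Panc-1 cells got 1 h of 10 ng/ml TGF-b1 following 3 h compound exposure at 37° C (10 μM final, or serial dilutions for IC50, 0.3% DMSO) after overnight 0.5% FBS starvation.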

Akt phosphorylation = assay: Akt Phosphorylation Assay (western blot), Panc-1; assay type: cell-based, human; conditions: at 10 μM, * = activation
Outline: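 Phospho-Akt (Ser473) was measured by western blot in lysates of KRas G12D Panc-1 cells exposed to test compound for 6 h at 37 °C, either at 10 μM final with 0.3% DMSO or as serial dilutions for IC50. One format used overnight 0.5% FBS starvation followed by a 15 min pulse of 1.5 ng/ml EGF. The other used cells in 10% FBS with no stimulation.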

IL6 = assay: IL-6 Quantification Assay (ELISA), LPS-stimulated RAW 264.7; assay type: cell-based; set-up: inhibition: dose or concentration left out as unconfirmed; conditions: Mus musculus, RAW264.7; read-out: IL-6: % inh.

| Structure (SMILES) | % inh of Smad2/3 phosphorylation in Panc-1 [1] | % inh of Akt phosphorylation in Panc-1 (Akt phosphorylation) | inhibition (IL6) [%] |
| --- | --- | --- | --- |
| COc1ncncc1Nc1nc(-c2nccn2C)nn2cc(-c3ccn(C(C)C)n3)c(C)c12 [Compound 88, 6-(1-Isopropyl-1H-pyrazol-3-yl)-N-(4-methoxypyrimidin-5-yl)-5-methyl-2-(1-methyl-1H-imidazol-2-yl)pyrrolo[2,1-f][1,2,4]triazin-4-amine] | C* (C* = 46-75% activation) | D* (85-100% activation) | 1 to 24 |
| COc1cccnc1Nc1nc(-c2nccn2C)nn2cc(-c3ccn(C(C)C)n3)c(C)c12 [Compound 89, 6-(1-Isopropyl-1H-pyrazol-3-yl)-N-(3-methoxypyridin-2-yl)-5-methyl-2-(1-methyl-1H-imidazol-2-yl)pyrrolo[2,1-f][1,2,4]triazin-4-amine] | C* (C* = 46-75% activation) | D* (85-100% activation) | 75 to 100 |
| Cc1c(-c2ccn(C(C)C)n2)cn2nc(-c3nccn3C)nc(Nc3ncc(C4CC4)o3)c12 [Compound 90, 5-Cyclopropyl-N-(6-(1-isopropyl-1H-pyrazol-3-yl)-5-methyl-2-(1-methyl-1H-imidazol-2-yl)pyrrolo[2,1-f][1,2,4]triazin-4-yl)oxazol-2-amine] | C* (C* = 46-75% activation) | A* (1-25% activation) | 0 |
| Cc1c(-c2ccn(C(C)C)n2)cn2nc(-c3nccn3C)nc(Nc3cc4n(n3)CCO4)c12 [Compound 91, N-(6-(1-Isopropyl-1H-pyrazol-3-yl)-5-methyl-2-(1-methyl-1H-imidazol-2-yl)pyrrolo[2,1-f][1,2,4]triazin-4-yl)-2,3-dihydropyrazolo[5,1-b]oxazol-6-amine] | 0 (0 = 0% inhibition) | D* (85-100% activation) | 1 to 24 |
| COCCO[C@H]1C[C@H](Nc2nc(-c3nccn3C)nn3cc(-c4ccn(C(C)C)n4)c(C)c23)C1 [Compound 92, 6-(1-Isopropyl-1H-pyrazol-3-yl)-N-((1r,3r)-3-(2-methoxyethoxy)cyclobutyl)-5-methyl-2-(1-methyl-1H-imidazol-2-yl)pyrrolo[2,1-f][1,2,4]triazin-4-amine] | A* (A* = 1-25% activation) | A* (1-25% activation) | 50 to 74 |
